In patent publication US8501752B2, “Methods for treating cancer and other pathological proliferating disorders by inhibiting mitosis using pyrrolo[2,3-d]pyrimidines” (Duquesne University of the Holy Ghost, priority 2005, dated 2013):
“Also recorded” adds a separate entry of the source.

Key:
p53 = test: Western blot, p53 expression in MCF-7 cells; type: cell-based, human; settings: 24 hours, various concentrations
Method: (§1) To further characterize the cell cycle effects of Compound 1 on human tumor cells, MCF-7 cells were treated for 24 hours with various concentrations of Compound 1, vinblastine, or TAXOL (paclitaxel). Cells were then harvested, lysed, and analyzed for levels of expression of p53 and WAF1 by Western Blot analyses. […] Compound 1 is identified as “149” in these figures. […] None of these treatments affected the expression of bcl-2 or P-tubulin in the MCF-7 cells.

KM12 = test: NCI IVCLSP growth inhibition (SRB), KM12; type: cell-based, human; settings: 48 h drug incubation
Method: (§2) FIG. 1 presents nine compounds that were tested using the National Cancer Institute (NCI) 60 human tumor cell lines. The cells lines, which represent leukemia, melanoma, and cancers of the lung, colon, brain, ovary, breast, prostate, and kidney, are listed in Table 1.
(§3) Compounds 1-9 were tested according to the NCI Developmental Therapeutics Program (DTP) In Vitro Cell Line Screening Project (IVCLSP). […] Methodology for testing under the IVCLSP is as follows: The human tumor cell lines of the cancer screening panel are grown in RPMI 1640 medium containing 5% fetal bovine serum and 2 mM L-glutamine. […]
(§4) Following drug addition, the plates are incubated for an additional 48 h at 37° C., 5% CO2, 95% air, and 100% relative humidity. […] Bound stain is subsequently solubilized with 10 mM trizma base, and the absorbance is read on an automated plate reader at a wavelength of 515 nm. […] Using the seven absorbance measurements [time zero, (Tz), control growth, (C), and test growth in the presence of drug at the five concentration levels (Ti)], the percentage growth is calculated at each of the drug concentrations levels. Percentage growth inhibition is calculated as: [(Ti−Tz)/(C−Tz)]×100 for concentrations for which Ti>/=Tz [(Ti−Tz)/Tz]×100 for concentrations for which Ti<Tz.
(§5) Three dose response parameters are calculated for each experimental agent. […]

WAF1 = test: Western blot, WAF1 expression in MCF-7 cells; type: cell-based, human; settings: 24 hours, various concentrations
Method: as §1

[1] = test system: NCI 60 human tumor cell lines; test: NCI IVCLSP growth inhibition, whole panel (text summaries); type: cell-based
Method: as §2
Compounds 1-9 were tested according to the NCI Developmental Therapeutics Program (DTP) In Vitro Cell Line Screening Project (IVCLSP). […] Methodology for testing under the IVCLSP is as follows: The human tumor cell lines of the cancer screening panel are grown in RPMI 1640 medium containing 5% fetal bovine serum and 2 mM L-glutamine. For a typical screening experiment, cells are inoculated into 96 well microtiter plates in 100 μL at plating densities ranging from 5,000 to 40,000 cells/well depending on the doubling time of individual cell lines. After cell inoculation, the microtiter plates are incubated at 37° C., 5% CO2, 95% air and 100% relative humidity for 24 h prior to addition of experimental drugs.
After 24 h, two plates of each cell line are fixed in situ with TCA, to represent a measurement of the cell population for each cell line at the time of drug addition (Tz). Experimental drugs are solubilized in dimethyl sulfoxide at 400-fold the desired final maximum test concentration and stored frozen prior to use. At the time of drug addition, an aliquot of frozen concentrate is thawed and diluted to twice the desired final maximum test concentration with complete medium containing 50 μg/ml gentamicin. Additional four, 10-fold or ½ log serial dilutions are made to provide a total of five drug concentrations plus control. Aliquots of 100 μl of these different drug dilutions are added to the appropriate microtiter wells already containing 100 μl of medium, resulting in the required final drug concentrations.
Following drug addition, the plates are incubated for an additional 48 h at 37° C., 5% CO2, 95% air, and 100% relative humidity. For adherent cells, the assay is terminated by the addition of cold TCA. Cells are fixed in situ by the gentle addition of 50 μl of cold 50% (w/v) TCA (final concentration, 10% TCA) and incubated for 60 minutes at 4° C. The supernatant is discarded, and the plates are washed five times with tap water and air dried. Sulforhodamine B (SRB) solution (100 μl) at 0.4% (w/v) in 1% acetic acid is added to each well, and plates are incubated for 10 minutes at room temperature. After staining, unbound dye is removed by washing five times with 1% acetic acid and the plates are air dried. Bound stain is subsequently solubilized with 10 mM trizma base, and the absorbance is read on an automated plate reader at a wavelength of 515 nm. For suspension cells, the methodology is the same except that the assay is terminated by fixing settled cells at the bottom of the wells by gently adding 50 μl of 80% TCA (final concentration, 16% TCA). Using the seven absorbance measurements [time zero, (Tz), control growth, (C), and test growth in the presence of drug at the five concentration levels (Ti)], the percentage growth is calculated at each of the drug concentrations levels. Percentage growth inhibition is calculated as: [(Ti−Tz)/(C−Tz)]×100 for concentrations for which Ti>/=Tz [(Ti−Tz)/Tz]×100 for concentrations for which Ti<Tz.
Three dose response parameters are calculated for each experimental agent. […] The drug concentration resulting in total growth inhibition (TGI) is calculated from Ti=Tz. […]

OVCAR-5 = test: NCI IVCLSP growth inhibition (SRB), OVCAR-5; type: cell-based, human; settings: 48 h drug incubation
Method: as §2, §3, §4, §5

SR = test: NCI IVCLSP growth inhibition (SRB), SR; type: cell-based, human; settings: 48 h drug incubation
Method: as §2, §3, §4, §5

MDA-MB-231/ATCC = test: NCI IVCLSP growth inhibition (SRB), MDA-MB-231/ATCC; type: cell-based, human; settings: 48 h drug incubation
Method: as §2, §3, §4, §5

NCI-H522 = test: NCI IVCLSP growth inhibition (SRB), NCI-H522; type: cell-based, human; settings: 48 h drug incubation
Method: as §2, §3, §4, §5

SF-268 = test: NCI IVCLSP growth inhibition (SRB), SF-268; type: cell-based, human; settings: 48 h drug incubation
Method: as §2, §3, §4, §5

NCI-H226 = test: NCI IVCLSP growth inhibition (SRB), NCI-H226; type: cell-based, human; settings: 48 h drug incubation
Method: as §2, §3, §4, §5

HOP-92 = test: NCI IVCLSP growth inhibition (SRB), HOP-92; type: cell-based, human; settings: 48 h drug incubation
Method: as §2, §3, §4, §5

SNB-75 = test: NCI IVCLSP growth inhibition (SRB), SNB-75; type: cell-based, human; settings: 48 h drug incubation
Method: as §2, §3, §4, §5

K-562 = test: NCI IVCLSP growth inhibition (SRB), K-562; type: cell-based, human; settings: 48 h drug incubation
Method: as §2, §3, §4, §5

[2] = test system: T24, MCF-7, NCI/ADR, MCF-7/VP; test: Cytotoxicity, panel of human tumor cell lines of Table 3 (text summaries)
Description: These cell lines are resistant to anticancer drugs due to overexpression of the transport proteins P-glycoprotein or MRP1.

UACC-62 = test: NCI IVCLSP growth inhibition (SRB), UACC-62; type: cell-based, human; settings: 48 h drug incubation
Method: as §2, §3, §4, §5

A498 = test: NCI IVCLSP growth inhibition (SRB), A498; type: cell-based, human; settings: A498; 48 h drug incubation, SRB
Method: as §2, §3, §4, §5

SF-295 = test: NCI IVCLSP growth inhibition (SRB), SF-295; type: cell-based, human; settings: 48 h drug incubation
Method: as §2, §3, §4, §5

HCT-15 = test: NCI IVCLSP growth inhibition (SRB), HCT-15; type: cell-based, human; settings: 48 h drug incubation
Method: as §2, §3, §4, §5

OVCAR-3 = test: NCI IVCLSP growth inhibition (SRB), OVCAR-3; type: cell-based, human; settings: 48 h drug incubation
Method: as §2, §3, §4, §5

COLO 205 = test: NCI IVCLSP growth inhibition (SRB), COLO 205; type: cell-based, human; settings: 48 h drug incubation
Method: as §2, §3, §4, §5

HT29 = test: NCI IVCLSP growth inhibition (SRB), HT29; type: cell-based, human; settings: 48 h drug incubation
Method: as §2, §3, §4, §5

HCC-2998 = test: NCI IVCLSP growth inhibition (SRB), HCC-2998; type: cell-based, human; settings: 48 h drug incubation
Method: as §2, §3, §4, §5

## COc1cc(CCc2cn(Cc3ccccc3)c3nc(N)nc(C)c23)cc(OC)c1OC [Compound 1]
p53
  level of expression of p53 (in words): induced the expression
KM12
  GI50: 194 nM
WAF1
  level of expression of WAF1 (in words): induced the expression
[1]; NCI 60 tumor panel
  GI50 values, level across the tumor cell lines (in words): nanomolar to submicromolar levels; also recorded: single or two digit nanomolar levels against 16 tumor cell lines; also recorded: submicromolar levels against 40 tumor cell lines; also recorded: micromolar levels against 3 tumor cell lines
[1]; requirement for a microtubule-targeting agent, satisfied
  average GI50: one μM or less
OVCAR-5
  GI50: > 1000 nM
SR
  GI50: 31.4 nM
MDA-MB-231/ATCC
  GI50: 595 nM
NCI-H522
  GI50: 47.7 nM
SF-268
  GI50: 669 nM
NCI-H226
  GI50: 195 nM
HOP-92
  GI50: 467 nM
SNB-75
  GI50: 358 nM
K-562
  GI50: 84.6 nM
[2]
  cytotoxic potency, better than Compound 4 (2-OMe): 10 fold
  effect of P-glycoprotein / MRP1 overexpression on cell sensitivity (in words): neither P-glycoprotein nor MRP1 affect cell sensitivity
[2]; all tested cell lines
  cytotoxic potency (in words): Submicromolar cytotoxic potency
UACC-62
  GI50: 39.9 nM
A498
  GI50: 136 nM
SF-295
  GI50: 41.8 nM
HCT-15
  GI50: 127 nM
OVCAR-3
  GI50: 28.8 nM
COLO 205
  GI50: 190 nM
HT29
  GI50: 281 nM
HCC-2998
  GI50: 317 nM
